Laboratory results published in patent publication US20250325684A1, “POTENT ANTI-CANCER CYCLOTIDES” (University of Southern California, priority 2022, published 2025).
Numbered stars: 1 amine (or outer) side, 2 acyl side, 3 side chain; on linkers, the order of the positions; unused ones are H or OH. Bridge positions count the residues as written; N and C are the ends. Square brackets hold non-standard residues; d marks the D form. Peptide text beside a SMILES is read from it. I, II: the chains in the order shown. X1 = O=C(CCc1cn(CCOCCOCCOCCC(=O)[*:2])nn1)[*:1]; isoGln = NC(=O)[C@H](CCC(=O)[*:2])N[*:1]

Legend:
Jurkat = test: MTT cell viability, Jurkat cells; type: cell-based, human; conditions: Jurkat childhood T acute lymphoblastic leukemia, p53 Mutant
Method: (§1) Cell viability assay in several human cancer cell lines (See Tables 1 to 10). Cell lines were cultured in RPMI 1640 (or recommended medium when indicated) medium supplemented with 10% fetal calf serum, penicillin (50 IU/mL) and streptomycin ([…]) at 37° C. in 5% CO2. Cell viability studies was carried using the MTT (3-(4,5-dimethylthiazol-2-yl)-2,5-diphenyltetrazolium bromide) assay as previously described (31). Briefly, ≈2×10^3 CRC cells were be seeded in 96-well microtiter plates in 100 μL RPMI 1640 in the presence of 10% calf serum. […] After 1 h, 210 μL/well of full complemented media was added, the cells were grown for 48 h and then treated with 20 μL of a solution of MTT (5 mg/mL) for 2 h. The medium was discarded and DMSO ([…]) was added to each well and incubated with gentle shaking for 20 min at room temperature. The absorbance at 595 nm of the solution is analyzed using a Tecan Genios Multifunctional Microplate Reader (Tecan System Inc) and the background at 670 nm subtracted. RNA-Seq analysis was performed using state-of-the-art bioinformatics tools. Briefly, raw RNA-Seq reads were mapped to human genome (hg38) using STAR aligner (v2.7.3a). Gencode Release 36 reference was used for annotation. Transcript and gene expression levels were quantified using the IsoEM (37) with default parameters. Counts per million (CPM) method is used for normalization. Differential expression was done using DESeq2 with default parameters. Genes involved in different biological pathways (human) were searched from Geneontology (http://geneontology.org/). Bioinformatics results can be validated by using Partek Flow (v10.0.21.0912), a bioinformatics pipeline developed by Zymo Research (https://www.zymoresearch.com/).
(§2) Cell viability was evaluated using the MTT assay as described above.

LNCaP = test: MTT cell viability, LNCaP cells; type: cell-based; conditions: LNCaP prostate carcinoma, p53 WT, read-out: Cell viability, Human Prostate Cancer Cells
Method: (§3) Cell viability assay in several human cancer cell lines (See Tables 1 to 10). Cell lines were cultured in RPMI 1640 (or recommended medium when indicated) medium supplemented with 10% fetal calf serum, penicillin (50 IU/mL) and streptomycin ([…]) at 37° C. in 5% CO2. Cell viability studies was carried using the MTT (3-(4,5-dimethylthiazol-2-yl)-2,5-diphenyltetrazolium bromide) assay as previously described (31). Briefly, ≈2×10^3 CRC cells were be seeded in 96-well microtiter plates in 100 μL RPMI 1640 in the presence of 10% calf serum. After 24 h incubation the cells were washed with PBS and treated with 30 μL/well of PBS or RPMI 1640 (or recommended) media containing cyclotides MCo-52, MCoTI-I (used as negative control), nutlin-3a (used as positive control) or MI-77301 (used as positive control for p53-mutated or p53-null cells) at the indicated doses for 1 h at 37° C. in 5% CO2. After 1 h, 210 μL/well of full complemented media was added, the cells were grown for 48 h and then treated with 20 μL of a solution of MTT (5 mg/mL) for 2 h. The medium was discarded and DMSO ([…]) was added to each well and incubated with gentle shaking for 20 min at room temperature. The absorbance at 595 nm of the solution is analyzed using a Tecan Genios Multifunctional Microplate Reader (Tecan System Inc) and the background at 670 nm subtracted. RNA-Seq analysis was performed using state-of-the-art bioinformatics tools. Briefly, raw RNA-Seq reads were mapped to human genome (hg38) using STAR aligner (v2.7.3a). Gencode Release 36 reference was used for annotation. Transcript and gene expression levels were quantified using the IsoEM (37) with default parameters. Counts per million (CPM) method is used for normalization. Differential expression was done using DESeq2 with default parameters. Genes involved in different biological pathways (human) were searched from Geneontology (http://geneontology.org/). Bioinformatics results can be validated by using Partek Flow (v10.0.21.0912), a bioinformatics pipeline developed by Zymo Research (https://www.zymoresearch.com/).
(§4) Tables 1 through 10 show in vitro activity of cyclotide MCo-52-2-cTAT against different human cancer cell lines, some with null-, mutated, or wildtype p53 phenotypes. Cell viability was evaluated using the MTT assay as described above.

NCl-H1975 = test: MTT cell viability, NCl-H1975 cells; type: cell-based, human; conditions: NCl-H1975 lung adenocarcinoma, p53 Mutant
Method: as §1, with “Counts per million (CPM) method is used for normalization. Differential expression was done using DESeq2 with default parameters. Genes involved in different biological pathways (human) were searched from Geneontology (http://geneontology.org/). Bioinformatics results can be validated by using Partek Flow (v10.0.21.0912), a bioinformatics pipeline developed by Zymo Research (https://www.zymoresearch.com/).” left out
as §2

NCl-H23 = test: MTT cell viability, NCl-H23 cells; type: cell-based, human; conditions: NCl-H23 lung adenocarcinoma, p53 Mutant
Method: as §1, §2

HL-60 = test: MTT cell viability, HL-60 cells; type: cell-based, human; conditions: HL-60 adult acute myeloid leukemia, p53 Null
Method: as §1, with “Counts per million (CPM) method is used for normalization. Differential expression was done using DESeq2 with default parameters. Genes involved in different biological pathways (human) were searched from Geneontology (http://geneontology.org/). Bioinformatics results can be validated by using Partek Flow (v10.0.21.0912), a bioinformatics pipeline developed by Zymo Research (https://www.zymoresearch.com/).” left out
as §2

NCl-H1299 = test: MTT cell viability, NCl-H1299 cells; type: cell-based, human; conditions: NCl-H1299 lung large cell carcinoma, p53 Null
Method: as §1, §2

BxPC-3 = test: MTT cell viability, BxPC-3 cells; type: cell-based, human; conditions: BxPC-3 pancreatic ductal adenocarcinoma, p53 Mutant
Method: as §1, §2

A2780 = test: MTT cell viability, A2780 ovarian cells; type: cell-based, human; conditions: p53 WT
Method: as §3, §4

4T1 = test: MTT cell viability, 4T1 cells; type: cell-based; conditions: 4T1 murine breast cancer, p53 WT
Method: as §1, with “Counts per million (CPM) method is used for normalization. Differential expression was done using DESeq2 with default parameters. Genes involved in different biological pathways (human) were searched from Geneontology (http://geneontology.org/). Bioinformatics results can be validated by using Partek Flow (v10.0.21.0912), a bioinformatics pipeline developed by Zymo Research (https://www.zymoresearch.com/).” left out
as §2

CT26 = test: MTT cell viability, CT26 cells; type: cell-based; conditions: CT26 murine colon cancer, p53 WT
Method: as §1, with “Counts per million (CPM) method is used for normalization. Differential expression was done using DESeq2 with default parameters. Genes involved in different biological pathways (human) were searched from Geneontology (http://geneontology.org/). Bioinformatics results can be validated by using Partek Flow (v10.0.21.0912), a bioinformatics pipeline developed by Zymo Research (https://www.zymoresearch.com/).” left out
as §2

DLD-1 = test: MTT cell viability, DLD-1 cells; type: cell-based, human; conditions: DLD-1 colon adenocarcinoma, p53 Mutant
Method: as §1, with “Counts per million (CPM) method is used for normalization. Differential expression was done using DESeq2 with default parameters. Genes involved in different biological pathways (human) were searched from Geneontology (http://geneontology.org/). Bioinformatics results can be validated by using Partek Flow (v10.0.21.0912), a bioinformatics pipeline developed by Zymo Research (https://www.zymoresearch.com/).” left out
as §2

MOLM-13 = test: MTT cell viability, MOLM-13 cells; type: cell-based, human; conditions: MOLM-13 adult acute myeloid leukemia, p53 WT
Method: as §1, §2

NCl-H1944 = test: MTT cell viability, NCl-H1944 cells; type: cell-based, human; conditions: NCl-H1944 lung adenocarcinoma, p53 WT
Method: as §1, with “Counts per million (CPM) method is used for normalization. Differential expression was done using DESeq2 with default parameters. Genes involved in different biological pathways (human) were searched from Geneontology (http://geneontology.org/). Bioinformatics results can be validated by using Partek Flow (v10.0.21.0912), a bioinformatics pipeline developed by Zymo Research (https://www.zymoresearch.com/).” left out
as §2

NCl-A549 = test: MTT cell viability, NCl-A549 cells; type: cell-based, human; conditions: NCl-A549 lung adenocarcinoma, p53 WT
Method: as §1, §2

Capan-1 = test: MTT cell viability, Capan-1 cells; type: cell-based, human; conditions: Capan-1 pancreatic ductal adenocarcinoma, p53 Mutant
Method: as §1, §2

NCl-H522 = test: MTT cell viability, NCl-H522 cells; type: cell-based, human; conditions: NCl-H522 lung adenocarcinoma, p53 Mutant (Deletion)
Method: as §1, §2

HCT116^+/+ = test: MTT cell viability, HCT116 p53 wild-type cells; type: cell-based, human; conditions: HCT116^+/+ colon carcinoma, p53 WT; MTT; read-out: EC50
Method: as §1, §2

Compound	EC50 (Jurkat) [µM]	EC50 (LNCaP) [µM]	EC50 (NCl-H1975) [µM]	EC50 (NCl-H23) [µM]	EC50 (HL-60) [µM]	EC50 (NCl-H1299) [µM]	EC50 (BxPC-3) [µM]	EC50 (A2780) [µM]	EC50 (4T1) [µM]	EC50 (CT26) [µM]	EC50 (DLD-1) [µM]	EC50 (MOLM-13) [µM]	EC50 (NCl-H1944) [µM]	EC50 (NCl-A549) [µM]	EC50 (Capan-1) [µM]	EC50 (NCl-H522) [µM]	EC50 (HCT116^+/+) [µM]
COc1ccc(C2=N[C@@H](c3ccc(Cl)cc3)[C@@H](c3ccc(Cl)cc3)N2C(=O)N2CCNC(=O)C2)c(OC(C)C)c1 [Nutlin 3A]	45.2 ± 2.4	19.7 ± 1.3	> 100	> 50	33.3 ± 4.4	> 100	38.5 ± 5.1	9.3 ± 0.5	28.5 ± 8.6	9.8 ± 1.2	> 100	1.4 ± 0.1	22.1	6.6 ± 0.7	> 100	> 50	–
N=C(N)NCCC[C@@H]1NC(=O)[C@@H](CCCNC(=N)N)NC(=O)[C@H](CCCCN)NC(=O)[C@@H](N)CCCCNC(=O)CC[C@@H](C(=O)O)NC(=O)[C@@H](CCCNC(=N)N)NC(=O)[C@H](CCCNC(=N)N)NC(=O)[C@@H](CCCCN)NC(=O)[C@H](CCCCN)NC(=O)[C@@H](CCCNC(=N)N)NC(=O)CNC(=O)[C@@H](CCCNC(=N)N)NC1=O [cTAT] (H-KK[dR]R[dR]G[dR]K[dK]R[dR]E-OH; lactam 1-12; N-terminus and C-terminus assumed)	> 100	> 100	> 100	> 100	> 100	> 100	> 100	> 100	> 100	> 100	> 100	> 100	> 100	> 100	> 100	> 100	> 100
I: cyclo(ACICRHDSYCGSGSDGGVCPNLYLLCRRDKDCPG) / II: KK[dR]R[dR]G[dR]K[dK]R[dR][isoGln] (disulfide I:2-I:19, I:4-I:26, I:10-I:32; linker I:30-II:N via X1; lactam II:1-II:C) [Cyclotide 52-2-cTAT]	–	6.3 ± 1.1	–	–	–	–	10.6 ± 1	9.7 ± 0.5	–	–	–	–	–	–	3.3 ± 0.3	–	10.9 ± 1.3
